What was measured:
[1] = tested on: Normal human fibroblasts [CCD45SK (ATCC CRL 1506)]; experiment: Response to βFGF: procollagenase production by normal human fibroblasts CCD45SK (Test Examples 1-3); type: cell-based; details: for activity at 1000 µM: Homo sapiens, Fibroblast, read-out: Response to βFGF Increment; for Procollagenase Production: mean ± SD, n = 3
Protocol: In the following tests, the procollagenase production was quantified in terms of the collagenase activity as obtained through activation with trypsin.
It is known that βFGF promotes procollagenase production. In the following tests, therefore, the βFGF activity increment as attained by the compound added was calculated from the procollagenase production, relative to the control using purified water in place of the test compound.
Normal human fibroblasts [CCD45SK (ATCC CRL 1506) as prepared from the skin of a person] were suspended at a cell density of 1×10^5 cells/ml in the MEM medium, comprising 10% (V/V) FBS and 1% (V/V) non-essential amino acids (produced by Dai-Nippon Pharmaceutical Co.). The suspended cells were seeded into each well of a 12-well plate in an amount of 0.8 ml/well (corresponding to 8×10^4 cells/well) and incubated in a saturated aqueous vapor with 5% CO2 at 37° C. […]
After having been incubated for 24 hours, the culture medium was removed from the plate by suction, and the cells remained were washed twice with an MEM medium containing 0.6% (v/v) (as final concentration) of FBS. Then, the cells were fed with 0.8 ml of the solution prepared above added to the cells, which were incubated for 2 days.
After the 2 days incubation, the culture medium was removed from the plate by suction, and the cells were fed with 0.8 ml of the solution and were further incubated for 2 days. This operation was repeated once again. Thus, the cells were processed in the medium containing the cytokine activity enhancer for 6 days in total.
After the above-mentioned process, the culture medium was removed from the plate by suction, and the cells were fed with 0.8 ml of an MEM medium containing 3 ng/ml of βFGF (produced by Boehringer Manheim Co.) and 0.6% (V/V) FBS, and were incubated for 3 days to obtain a culture supernatant.
3.5 ml of 10 mM Tris-HCl buffer [adjusted at pH 7.8 at 4° C., containing 1 mM calcium chloride and 0.05% (W/V) Brij-35] was added to 500 μl of the thus-obtained culture supernatant, and applied to CM-Sepharose CL-6B (trade name, produced by Pharmacia Co., having a bed volume of 0.5 ml) as previously equilibrated with the same buffer.
Next, the inhibitor was removed through treatment with 0.5 ml of the same buffer as above but containing 125 mM sodium chloride (4 times in all, 2 ml of the buffer was used in total), and the procollagenase was recovered through treatment with 0.5 ml of the same buffer as above but containing 500 mM sodium chloride (4 times in all, 2 ml of the buffer was used in total). This was used as a test sample.
The test sample was suitably diluted with a buffer for measurement (mentioned above), 25 μl of the thus-diluted sample was mixed with 25 μl of the buffer, 20 μl of a trypsin solution (as prepared by adding trypsin, Type 12 (produced by Sigma Co.) to the buffer at a concentration of 1 mg/ml) was added thereto, and this was incubated at 35° C. for 5 minutes. Then, 30 μl of a soybean trypsin inhibitor solution (as prepared at a concentration of 3 mg/ml, using the buffer) was added to this to thereby inactivate the trypsin. The resulting solution is designated collagenase solution.
Using type I collagen as labeled with fluorescein isothiocyanate (hereinafter referred to as FITC) (this is an acetic acid solution of FITC-collagen having a concentration of 1 mg/ml; produced by Cosmo-Bio Co.), as a substrate solution, the collagenase activity (unit/ml) of the solution was measured according to the method of Nagai et al. (see Inflammations, Vol. 4, No. 2, p. 123, 1984). […] The procollagenase production (unit/ml of culture medium) was thus obtained and referred to as X1.

[2] = tested on: Normal human fibroblasts [CCD45SK (ATCC CRL 1506)]; experiment: Response to TGF-β1: TIMP production by normal human fibroblasts (Test Examples 12-13); type: cell-based; details: Test Example 12, 1 mM, 6 days, 3 ng/ml TGF-β1, 3 days
Protocol: Normal human fibroblasts [CCD45SK (ATCC CRL 1506) as prepared from the skin of a person] were suspended at a cell density of 1×10^5 cells/ml in the MEM medium, comprising 10% (V/V) FBS and 1% (V/V) non-essential amino acids (produced by Dai-Nippon Pharmaceutical Co.). The suspended cells were seeded into each well of a 12-well plate in an amount of 0.8 ml/well (corresponding to 8×10^4 cells/well) and incubated in a saturated aqueous vapor with 5% CO2 at 37° C.

male ICR mice = experiment: Acute Toxicity Test; details: oral, 5 g/kg of body weight; observed for 7 days
Protocol: Water, or an aqueous solution of N-Methyl-L-Serine (this was prepared to have a concentration of 5 g/kg of body weight of test animal, as a sample) was orally administered to male ICR mice (5 weeks-age; body weight, 24 to 28 g; 5 mice in one group), in an amount of […] of body weight.

[3] = tested on: Japanese native, male house rabbits; details: rabbit, in vivo
Protocol: Aqueous solutions of N-Methyl-L-Serine, Ethanolamine and N-Methylethanolamine that had been adjusted to have a pH of 7 with hydrochloric acid were used as test samples.
Using Japanese native, male house rabbits (body weight: about 3 kg), the test samples were tested according to the Draize method (see Appraisal of the Safety of Chemicals in Foods, Drugs and Cosmetics, p. 46, 1959, edited and published by the Deitorial Committee, Association of Food and Drug Officials of U.S.A.).
24 hours after the last application, the tested area of each rabbit was checked to score the erythema, edema, scab and rhagades, if any, formed in the area.
The erythema score, the edema score, the scab score, and the rhagades score as referred to in Table 17 were summed up to obtain the cumulative stimulation score.
Next, from the cumulative stimulation scores, obtained were the degrees of stimulation with N-Methyl-L-Serine, Ethanolamine and N-Methylethanolamine,according to the criteria shown in Table 18 below.

**Q.** Which “concentration dependence of increase in procollagenase production / response to βFGF” value ([1]; 0.01 to 10 mM) does the source give for `CN[C@@H](CO)C(=O)O` [Example 1, N-methyl-L-serine] here?
**A.** in a concentration-dependent manner

**Q.** And the activity at 1000 µM ([1]; 144 h, Test Example 1, 1 mM, 6 days, 3 ng/ml βFGF, control (purified water) = 100)?
**A.** 220%

**Q.** And the activity at 1000 µM ([1]; Test Example 2, 0.01 mM, control = 100)?
**A.** 100%

**Q.** What about the activity at 1000 µM ([1]; Test Example 2, 1.0 mM, control = 100) of the same compound?
**A.** 130%

**Q.** And the “Procollagenase Production” value ([1]; Test Example 1, 1 mM, 6 days, 3 ng/ml βFGF)?
**A.** 15 ± 1.0 unit/ml

**Q.** And the “Procollagenase Production” value ([1]; Test Example 2, 0.01 mM)?
**A.** 15 ± 3.3 unit/ml

**Q.** What about the “Procollagenase Production” value ([1]; Test Example 2, 0.1 mM) of the same compound?
**A.** 17 ± 2.9 unit/ml

**Q.** What about the “Procollagenase Production” value ([1]; Test Example 2, 0.3 mM) of the same compound?
**A.** 24 ± 3.5 unit/ml

**Q.** What about the “Procollagenase Production” value ([1]; Test Example 2, 1.0 mM) of the same compound?
**A.** 19 ± 1.3 unit/ml

**Q.** What about the “Procollagenase Production” value ([1]; Test Example 2, 3.0 mM) of the same compound?
**A.** 26 ± 1.5 unit/ml

**Q.** What about the “Procollagenase Production” value ([1]; Test Example 2, 10 mM) of the same compound?
**A.** 32 ± 2.2 unit/ml

**Q.** What about the activity at 1000 µM ([2]; Homo sapiens, Fibroblast, control = 100, read-out: Response to TGF-β1 Increment) of the same compound?
**A.** 240%

**Q.** And the “TIMP Production” value ([2]; mean ± SD, n = 3)?
**A.** 240 ± 21 unit/ml

**Q.** What about the deaths of mice (male ICR mice) of the same compound?
**A.** No mice of the test group to which N-Methyl-L-Serine was administered died

**Q.** What about the “cumulative stimulation to the skin (in words)” value [3] of the same compound?
**A.** low
